# Test results published in PubChem BioAssay AID330 (DTP/NCI, 2004).
# “And” between values parts separate entries of the source, which are not always exact repeats. Equal entries are not always repeated. Toxic doses and inconclusive results are not listed.
# Tested on: P388 leukemia ip, CD2F1 mice, survival T/C
# Experiment: NCI In Vivo Anticancer Drug Screen. Data for tumor model P388 Leukemia (intraperitoneal) in CD2F1 (CDF1) mice
# Settings: endpoint: median survival time, higher = longer survival
# Outline: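 Mice carrying the transplanted tumor received test compound or vehicle. Survival was recorded in each group, and the value is the treated-group measurement divided by that of the vehicle-treated control group.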
# [1] = dose: 12.5 mg/kg/injection, schedule: Q01DX009 (ip), vehicle: water
# [2] = dose: 25.0 mg/kg/injection, schedule: Q01DX009 (ip), vehicle: saline with Tween-80
# [3] = dose: 50.0 mg/kg/injection, schedule: Q01DX009 (ip), vehicle: saline with Tween-80
structure (smiles),measurement,setting,value
COc1cccc2c1C(=O)c1c(O)c3c(c(O)c1C2=O)C[C@@](O)(C(C)=O)C[C@@H]3OC1CC(NCc2ccccc2)C(O)C(C)O1 (some centres undefined),T/C,"dose: 0.78 mg/kg/injection, schedule: Q01DX009 (ip), vehicle: water",114 % of control
same,T/C,"dose: 1.56 mg/kg/injection, schedule: Q01DX009 (ip), vehicle: water",161 % of control and 162 % of control
same,T/C,"dose: 2.35 mg/kg/injection, schedule: Q04DX003 (ip), vehicle: water",106 % of control
same,T/C,"dose: 3.13 mg/kg/injection, schedule: Q01DX009 (ip), vehicle: water",166 % of control and 185 % of control
same,T/C,"dose: 6.48 mg/kg/injection, schedule: Q04DX003 (ip), vehicle: water",166 % of control
same,T/C,"dose: 9.4 mg/kg/injection, schedule: Q04DX003 (ip), vehicle: water",153 % of control
same,T/C,"dose: 10.8 mg/kg/injection, schedule: Q04DX003 (ip), vehicle: water",204 % of control
same,T/C,[1],94 % of control
same,T/C,"dose: 18.0 mg/kg/injection, schedule: Q04DX003 (ip), vehicle: water",115 % of control
same,T/C,"dose: 18.8 mg/kg/injection, schedule: Q04DX003 (ip), vehicle: water",169 % of control
same,T/C,"dose: 37.5 mg/kg/injection, schedule: Q04DX003 (ip), vehicle: water",116 % of control
same,T/C,"dose: 75.0 mg/kg/injection, schedule: Q04DX003 (ip), vehicle: water",95 % of control
Cc1cc(N/N=C(\c2ccccc2)c2ccccn2)nc2ccccc12,T/C,"dose: 50.0 mg/kg/injection, schedule: Q01DX005 (ip), vehicle: saline with Tween-80",104 % of control
same,T/C,"dose: 100.0 mg/kg/injection, schedule: Q01DX005 (ip), vehicle: saline with Tween-80",103 % of control
same,T/C,"dose: 200.0 mg/kg/injection, schedule: Q01DX005 (ip), vehicle: saline with Tween-80",94 % of control
COc1ccc(OCCC(=O)O)cc1,T/C,"dose: 1.56 mg/kg/injection, schedule: Q01DX009 (ip), vehicle: saline with Tween-80",109 % of control
same,T/C,"dose: 3.12 mg/kg/injection, schedule: Q01DX009 (ip), vehicle: saline with Tween-80",112 % of control
same,T/C,"dose: 6.25 mg/kg/injection, schedule: Q01DX009 (ip), vehicle: saline with Tween-80",112 % of control and 86 % of control
same,T/C,[2],105 % of control
same,T/C,[3],102 % of control
NC1=C(O)C(=O)C(c2c(Cl)cccc2Cl)O1 (centres undefined),T/C,"dose: 60.0 mg/kg/injection, schedule: Q01DX005 (ip), vehicle: Klucel (hydroxypropylcellulose) (HPC)",105 % of control
same,T/C,"dose: 120.0 mg/kg/injection, schedule: Q01DX005 (ip), vehicle: Klucel (hydroxypropylcellulose) (HPC)",102 % of control
same,T/C,"dose: 240.0 mg/kg/injection, schedule: Q01DX005 (ip), vehicle: Klucel (hydroxypropylcellulose) (HPC)",105 % of control
CSC(=S)Nc1nc2ccc(C)cc2s1,T/C,"dose: 100.0 mg/kg/injection, schedule: Q04DX003 (ip), vehicle: Klucel (hydroxypropylcellulose) (HPC)",95 % of control
same,T/C,"dose: 200.0 mg/kg/injection, schedule: Q04DX003 (ip), vehicle: Klucel (hydroxypropylcellulose) (HPC)",88 % of control
same,T/C,"dose: 400.0 mg/kg/injection, schedule: Q04DX003 (ip), vehicle: Klucel (hydroxypropylcellulose) (HPC)",92 % of control
CC(=O)C1(O)CCCC(OC2CC(N)C(O)C(C)O2)C1 (centres undefined),T/C,"dose: 6.25 mg/kg/injection, schedule: Q01DX009 (ip), vehicle: water",100 % of control
same,T/C,[1],95 % of control
same,T/C,"dose: 25.0 mg/kg/injection, schedule: Q01DX009 (ip), vehicle: water",104 % of control
same,T/C,"dose: 50.0 mg/kg/injection, schedule: Q01DX009 (ip), vehicle: water",113 % of control
same,T/C,"dose: 100.0 mg/kg/injection, schedule: Q01DX009 (ip), vehicle: water",113 % of control
COc1cc(/C=N\NC(=O)C(C)SC(C)C(=O)N/N=C/c2cc(OC)c(OC)c(OC)c2)cc(OC)c1OC (centres undefined),T/C,"dose: 50.0 mg/kg/injection, schedule: Q01DX005 (ip), vehicle: Klucel (hydroxypropylcellulose) (HPC)",93 % of control
same,T/C,"dose: 100.0 mg/kg/injection, schedule: Q01DX005 (ip), vehicle: Klucel (hydroxypropylcellulose) (HPC)",88 % of control
same,T/C,"dose: 200.0 mg/kg/injection, schedule: Q01DX005 (ip), vehicle: Klucel (hydroxypropylcellulose) (HPC)",90 % of control
CCOC(=O)N[N+]12CCN(CC1)CC2,T/C,"dose: 100.0 mg/kg/injection, schedule: Q04DX003 (ip), vehicle: saline",100 % of control
same,T/C,"dose: 200.0 mg/kg/injection, schedule: Q04DX003 (ip), vehicle: saline",102 % of control
same,T/C,"dose: 400.0 mg/kg/injection, schedule: Q04DX003 (ip), vehicle: saline",102 % of control
O=C(C/C(=N\C(=S)Nc1cc(C(F)(F)F)ccc1Cl)NO)N1CCCC1,T/C,[2],101 % of control and 116 % of control
same,T/C,[3],105 % of control and 112 % of control
same,T/C,"dose: 100.0 mg/kg/injection, schedule: Q01DX009 (ip), vehicle: saline with Tween-80",117 % of control
same,T/C,"dose: 200.0 mg/kg/injection, schedule: Q01DX009 (ip), vehicle: saline with Tween-80",117 % of control
OC1C[n+]2cc3ccccn3c2-c2cccc[n+]21 (centres undefined),T/C,"dose: 12.5 mg/kg/injection, schedule: Q01DX009 (ip), vehicle: saline",94 % of control
same,T/C,"dose: 25.0 mg/kg/injection, schedule: Q01DX009 (ip), vehicle: saline",97 % of control
same,T/C,"dose: 50.0 mg/kg/injection, schedule: Q01DX009 (ip), vehicle: saline",100 % of control
CCOP(=O)(O)SP(=O)(O)OCC.CCOP(=O)(O)SP(=O)(O)OCC.[Mn],T/C,"dose: 50.0 mg/kg/injection, schedule: Q04DX002 (ip), vehicle: saline",117 % of control
same,T/C,"dose: 100.0 mg/kg/injection, schedule: Q04DX002 (ip), vehicle: saline",113 % of control and 117 % of control
CC(=O)c1cc(C(O)C(O)C(O)C(O)CO)[nH]c1C (centres undefined),T/C,"dose: 50.0 mg/kg/injection, schedule: Q01DX005 (ip), vehicle: saline",108 % of control
same,T/C,"dose: 100.0 mg/kg/injection, schedule: Q01DX005 (ip), vehicle: saline",108 % of control
same,T/C,"dose: 200.0 mg/kg/injection, schedule: Q01DX005 (ip), vehicle: saline",110 % of control
